Reference: BindingDB's records for doi:10.1021/bi00331a002 (University of Minnesota, 1985)
pKi: −log10 of the molar value.

Target: Glutamate receptor ionotropic, NMDA 1 (Rattus norvegicus, UniProt P35439)

| Compound | pKi |
| --- | --- |
| N[C@H](CC(=O)O)C(=O)O | < 5.00 |
| N[C@@H](CCP(=O)(O)O)C(=O)O [2-Amino-4-phosphono-butyric acid] | 5.82 |
| N[C@@H](Cn1oc(=O)[nH]c1=O)C(=O)O [2-amino-3-(3,5-dioxo[1,2,4]oxadiazolidin-2-yl)propionic acid] | 6.59 |
| CP(=O)(O)CCC(N)C(=O)O (stereo not drawn) [2-amino-4-(methylphosphino) butanoic acid] | 5.42 |
| N[C@H](CCCP(=O)(O)O)C(=O)O [CB3371309] | < 5.00 |
| N[C@H](CCP(=O)(O)O)C(=O)O [D-AP4] | < 5.00 |
| N[C@@H](CC(=O)O)C(=O)O [L-Aspartic acid, 2] | 5.10 |
| CC(C[C@H](N)C(=O)O)P(=O)(O)O (stereo partly drawn) [gamma-methyl-APB] | 5.07 |
